Legend:
[1] = Body weight of mice on administration of creatine and phenylcreatine; format: in vivo; conditions: 20 days daily into the stomach, creatine 0.3 mg per gram, phenylcreatine 50 mg per kg, control 6.4%
Experimental: In order to find out whether phenylcreatine is a functional analogue of creatine, and also how much its effect is related to the strength of creatine, the functional state of the mice was assessed, namely, the body weight was measured, activity and endurance in the test on white mongrel mice were assessed—males weighing 18-22 g.
Two experimental groups of mice and one control group (10 mice in each group) were selected. Initially, the animals were of equal mass. The animals were kept in accordance with the rules adopted by the European Convention for the Protection of Vertebrates used for experimental and other purposes (European Convention for the Protection of Vertebrates used for Experiments or for Other Scientific Purposes (EST No. 123), Strasbourg, 18 March 1986, M., 1990, 12 pp.). Animals were kept in standard vivarium conditions. The animals were killed by decapitation in accordance with the “Rules for carrying out work using experimental animals”, approved by order of the Ministry of Health of the USSR No. 742 of 13 Nov. 1984 (Bolshakov O P, Neznanov N G, Babakhnyan R V Didactic and ethical aspects of research on biomodels and on laboratory animals//Qualitative clinical practice. 2002. No. 1. P.58-61).
Within 20 days, the animals received an aqueous solution of creatine in a dosage of 0.3 mg per gram of weight. […]

untrained subjects = conditions: creatine in combination with carbohydrates, 5 days before and 14 days after training; cited from earlier work
[2] = system: healthy men, having a sedentary lifestyle; conditions: loading protocol followed by 11-week maintenance; for 4-12 weeks; cited from earlier work
[3] = system: craniocerebral trauma in rats and mice; conditions: cited from earlier work
[4] = system: children and adults with craniocerebral trauma (CCT); conditions: six months, 400 mg/kg of body weight, cited from earlier work
[5] = system: adrenal arrhythmia (extrasystole) in rats; test: Model of adrenal arrhythmia (extrasystole) in rats; format: in vivo
Text: One of the most important factors of arrhythmogenesis and the appearance of extrasystoles is the activation of the sympathoadrenal system. This circumstance determined the necessity of investigating phenylcreatine, proposed by the author of the present invention, on the model of adrenal arrhythmia (extrasystole) in rats (Kushakovsky M S, Heart arrhythmias: a guide for physicians, St. Petersburg, Hippocrates 1992).
In a control series of experiments, in all animals, 12 seconds after injection of epinephrine hydrochloride at a dose of […], polytopic ventricular extrasystole occurred in all animals. The number of ventricular extrasystoles before transition to tachycardia averaged 32±6. The duration of such arrhythmias was 80±21 seconds. In 50% of cases, it passed into the ventricular tachycardia. The duration of tachycardia was, on average, 86±12 seconds.
With the introduction of phenylcreatine, proposed by the present inventor in an amount of 20 mg per animal, half an hour before adrenaline hydrochloride, the number of ventricular extrasystoles was 12±4. The duration of the arrhythmia was 60±14 seconds.

[6] = system: supraventricular extrasystoles; test: Holter monitoring of supraventricular extrasystoles in a person taking phenylcreatine; format: in vivo, human; conditions: 2 mg per 1 kg per day for 14 days
Experimental: Additionally, the following study was carried out. Professional […] (15 years of experience in power triathlon). Supraventricular extrasystoles with a frequency of 4 times in 24 hours were observed according to holter monitoring. Extrasystoles were very poorly tolerated, there were complaints of discomfort and a decrease in the quality of life (neurosis-like condition). They took phenylcreatine in an amount of 2 mg per 1 kg per day, for 14 days.

male Wistar rats = test: Nootropic action in a shuttle maze, old rats; format: in vivo; conditions: old rats 25 months
Experimental: The experiments were performed on male Wistar rats born in September 2014 (experiments were conducted in November 2016). The animals were kept in standard plastic cells at an air temperature of 21-23° C. They received a balanced granular food and drinking water without restrictions. The work was carried out in compliance with the principles of the Helsinki Declaration on Humane Treatment of Animals.
Rats were divided into 2 groups. The rats of the first test group received 10 mg of phenylcreatine per animal daily for a month with drinking water. The rats of the second test group received water. As a control in the experiment, rats born in May 2016 (the third group, young rats) were used.
In the experiment, a shuttle maze was used to evaluate neuropsychiatric processes, primarily cognitive processes (Navakatikyan M A, Platonov L L, 1988). At the end of the labyrinth there was a food reinforcement (a piece of cheese with a mass of 200 mg).
The time of the experiment to find the exit from the labyrinth was 5 minutes. During the experiment, the time of passing the labyrinth, the number of rats reaching the end of the labyrinth, the number of vertical racks were recorded.

[7] = Negative effects in all the studies conducted; format: in vivo
Text: It should also be noted that, with all the studies conducted, the negative effects of phenylcreatine according to the invention were not detected, which indicates its safety.

white mongrel mice = test: Endurance of mice in the treadmill test (running to complete exhaustion); format: in vivo

Row | Negative effects [7] | SMILES | Weight gain [1] | Isokinetic muscle strength, greater than with carbohydrates only (untrained subjects) | Isometric muscle strength, greater than with carbohydrates only (untrained subjects) | Reduction of the glucose response in glucose tolerance test [2] | Subsequent injuries ([3]; dietary consumption of 1% creatine for four weeks) | Reduction of the severity of craniocerebral trauma ([3]; injections of creatine 3 g/kg for up to five days before trauma) | Frequency of fatigue ([4]; reduced from 82.4%) | Frequency of dizziness ([4]; reduced from 88.9 percent) | Frequency of headaches ([4]; reduced from 93.8%) | Number of ventricular extrasystoles ([5]; 20 mg per animal half an hour before adrenaline hydrochloride, control 32±6) | Duration of the arrhythmia ([5]; 20 mg per animal half an hour before adrenaline hydrochloride, control 80±21) | Transition to tachycardia ([5]; 20 mg per animal, control 50% of cases) | Holter monitoring within 3 months after the course [6] | Extrasystoles after the course ([6]; before: 4 times in 24 hours) | Number of vertical rearings per minute (male Wistar rats; 10 mg per animal daily for a month with drinking water, untreated old rats 2±0.56) | The transit time of the labyrinth (male Wistar rats; 10 mg per animal daily for a month, untreated old rats 5±0.42) | The number of rats reaching the end of the labyrinth in 5 minutes (male Wistar rats; 10 mg per animal daily for a month, untreated old rats 10%) | Effect on endurance in the absence of sleep (white mongrel mice)
1 | – | CN(CC(=O)O)C(=N)N [creatine, 2-(methylguanine)-ethane acid] | 9% | 10% | 21% | 11-22% | halved | 3-36% | 11.1% | 43.8% | 11.1% | – | – | – | – | – | – | – | – | –
2 | not detected | N=C(N)N(CC(=O)O)Cc1ccccc1 [phenylcreatine, N-benzyl-N-carbamimidoylglycine] | 15.4% | – | – | – | – | – | – | – | – | 12±4 | 60 ± 14 s | no transition to tachycardia | does not fix supraventricular extrasystoles | extrasystoles completely disappeared | 1.2±0.44 | 2 ± 0.22 min | 50% | persisted even in the absence of sleep

Source: patent publication US20190367449A1, “PHENYLCREATINE, ITS USE AND METHOD FOR ITS PRODUCTION” (priority 2017, published 2019)
